Measurements as given in patent US10501479B2, “Benzenesulfonyl-asymmetric ureas and medical uses thereof” (HELSINN HEALTHCARE SA, priority 2016, dated 2019).
Where two headings read alike, the source gives them in different places.

Columns and labels:
[1] = Metabolic stability in human liver microsomes; assay type: in vitro ADME
Procedure: (§1) Metabolic Stability Study
(§2) The metabolic stability of compounds in human, dog, rat and mouse liver microsomes was performed according the experimental conditions reported below:
(§3) • a) Prepare the following 5 stock solutions: • 1. Test compound stock solutions: dilute 10 mM solution of dextromethorphan (Dtr) in DMSO, 10 mM solution of diphenhydramine (DPA) in DMSO, 10 mM solution of omeprazole (Ome) in DMSO, 10 mM solution of verapamil (Ver) in DMSO, and 10 mM of an inverse agonist compound in DMSO to 0.25 mM solution each with acetonitrile/water (70/30). • 2. Buffer: 100 mM potassium phosphate Buffer (PBS) at pH 7.4 • 3. Liver microsomes (20 mg/ml): Thaw in 37° C. water bath quickly • 4. 2000 μL: of NADPH regenerating system (1.3 mM). Place this system on ice before use:
(§4) • 5. […] The test compound concentration in the wells, measured by LC-MS/MS, represents the concentration at time=0. • f) To determine the test compound concentration when t≠0, pre-incubate the NADPH regenerating system and the incubation plate containing the remaining 320 μL of incubation mixture (microsomes protein and test compound) for 5 minutes at 37° C. • g) Start the incubation reaction by adding 80 μL NADPH regenerating system to each well containing the remaining 320 μL incubation mixture. • h) After 10 min., 30 min., and 90 min. of incubation at 37° C., transfer 100 μL of the incubation mixture (microsomes protein, test compound, and NADPH) into the wells of a stop plate pre-filled with 300 μL of the cold quench solution. Shake well. • i) Centrifuge the stop plate at 5000×g for 10 minutes. Collect and dilute the supernatant 3 times with distilled water. Sample and analyze the test compound concentration for all the wells by LC-MS/MS. Animal PK Studies via i.v. (intravenous), p.o. (orally) and s.c. (subcutaneous) administrations

[2] = biological target: T1, recombinant human ghrelin receptor (HEK293/GRLN) (Homo sapiens, UniProt Q92847); test: Ghrelin inverse agonist potency (EC50) with IP-1 (IP-One HTRF) assay; assay type: cell-based; settings: IP-1 assay
T1 construct: expressed in transfected cells
In short: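 HEK293/GRLN cells were seeded 18-22 hours before the test, then exposed to compound in stimulation buffer for 1 hour at 37° C, 5% CO2. IP-1 was detected by IP-One HTRF (IP1-d2 plus Tb-cryptate, 1 hour RT), reading 620 and 665 nm; the inverse agonist EC50 was derived from this.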

[3] = biological target: T2, GHSR-1a (HEK293/GHSR1a cell line) (Homo sapiens, UniProt Q92847); test: Ghrelin antagonist potency (IC50) with calcium FLIPR assay, ghrelin 10 nM; assay type: cell-based
T2 construct: expressed in transfected cells; host or cells: HEK293/GHSR1a cell line
In short: (§5)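 Cells seeded 24 h before the run were loaded with calcium dye for 30-60 min at room temperature or 37° C. For agonism, compound was added at t=20 sec and the calcium signal followed for 2 minutes. For antagonism, compound plus ghrelin (10 nM) went on at t=20 sec, and IC50 reflected the drop in ghrelin response.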

[4] = Metabolic stability in mouse liver microsomes; assay type: in vitro ADME
Procedure: as §1, §2, §3, §4

[5] = biological target: T2, GHSR-1a (HEK293/GHSR1a cell line); test: Ghrelin agonist potency (EC50) with calcium FLIPR assay; assay type: cell-based; settings: ghrelin agonist potency, read-out: Activity EC50/EMax
In short: as §5

[6] = inverse agonist potency, read-out: EC50 (Activity)
[7] = ghrelin antagonist potency, read-out: IC50 (Activity)
[8] = ghrelin inverse agonist potency, read-out: Activity EC50
[9] = ghrelin antagonist potency, read-out: Activity IC50

T1 sequence (Q92847 whole entry): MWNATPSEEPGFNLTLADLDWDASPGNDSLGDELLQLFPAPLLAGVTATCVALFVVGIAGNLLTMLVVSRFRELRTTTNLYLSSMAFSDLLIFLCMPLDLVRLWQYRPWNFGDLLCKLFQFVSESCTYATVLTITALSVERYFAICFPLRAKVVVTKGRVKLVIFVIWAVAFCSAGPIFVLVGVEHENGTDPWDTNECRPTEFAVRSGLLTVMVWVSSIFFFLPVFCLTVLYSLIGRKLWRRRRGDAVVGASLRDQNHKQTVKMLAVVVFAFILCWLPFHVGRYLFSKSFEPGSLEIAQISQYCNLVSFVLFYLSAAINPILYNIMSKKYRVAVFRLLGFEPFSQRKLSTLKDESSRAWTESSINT
T2 sequence (Q92847 whole entry): as above

Structure (SMILES) | Metabolic Stability Study H = human [1] | EC50 [2, 6] [nM] | IC50 [3, 7] [nM] | Metabolic Stability Study M = mouse [4] | IC50 ([3]; HEK293/GHSR1a, ghrelin 10 nM, read-out: Activity IC50 (ghrelin antagonist potency)) [nM] | EC50 [2, 8] [nM] | IC50 [3, 9] [nM] | EC50 [5] [nM]
C[C@H](NC(=O)Nc1ccc(S(=O)(=O)N(C)c2ccc(CC(C)(C)N)cc2)cc1)c1cccc(Cl)c1Cl.Cl [H0971, (S)-N-(4-(2-amino-2-methylpropyl)phenyl)-4-(3-(1-(2,3-dichlorophenyl)ethyl)ureido)-N-methylbenzenesulfonamide] | 31.9 µL/min/mg | 135 | 417 | 24.8 µL/min/mg |  |  |  | 
CN(C)C(C)(C)Cc1ccc(NS(=O)(=O)c2ccc(NC(=O)NCc3ccccc3)cc2)cc1 [H1009, 4-(3-benzylureido)-N-(4-(2-(dimethylamino)-2-methylpropyl)phenyl) benzenesulfonamide] | 13.2 µL/min/mg | 32.8 | 252 | 33.8 µL/min/mg |  |  |  | 
CCN1CCc2cc(NS(=O)(=O)c3ccc(NC(=O)N[C@@H](C)c4ccc(OC)c(Cl)c4Cl)cc3)ccc2C1 [H1018, (S)-4-(3-(1-(2,3-dichloro-4-methoxyphenyl)ethyl)ureido)-N-(2-ethyl-1,2,3,4-tetrahydroisoquinolin-6-yl)benzenesulfonamide] | < 10 µL/min/mg | 13.7 | 99.8 | 46.3 µL/min/mg |  |  |  | 
C[C@H](NC(=O)Nc1ccc(S(=O)(=O)Cc2ccc3c(c2)CNC3)cc1)c1cccc(Cl)c1Cl.Cl [H1056, (S)-1-(1-(2,3-dichlorophenyl)ethyl)-3-(4-((isoindolin-5-ylmethyl)sulfonyl)phenyl)urea] | 16.4 µL/min/mg | 2.6 | 5.8 | 13.5 µL/min/mg |  |  |  | 
Cc1oc(=O)oc1CN1CCc2cc(CS(=O)(=O)c3ccc(NC(=O)N[C@@H](C)c4cccc(Cl)c4Cl)cc3)ccc2C1 [H1067, (S)-1-(1-(2,3-dichlorophenyl)ethyl)-3-(4-(((2-((5-methyl-2-oxo-1,3-dioxol-4-yl)methyl)-1,2,3,4-tetrahydroisoquinolin-6-yl)methyl)sulfonyl)phenyl)urea] | 326.2 µL/min/mg | 4.5 | 14 | 289 µL/min/mg |  |  |  | 
Cc1oc(=O)oc1CN1CCc2cc(NS(=O)(=O)c3ccc(NC(=O)N[C@@H](C)c4cccc(Cl)c4Cl)cc3)ccc2C1 [H1068, (S)-4-(3-(1-(2,3-dichlorophenyl)ethyl)ureido)-N-(2-((5-methyl-2-oxo-1,3-dioxol-4-yl)methyl)-1,2,3,4-tetrahydroisoquinolin-6-yl)benzenesulfonamide] | 199.7 µL/min/mg | 8.4 | 26.3 | 196.4 µL/min/mg |  |  |  | 
C[C@H](NC(=O)Nc1ccc(S(=O)(=O)Nc2ccc(CC(C)(C)O)cc2)cc1)c1cccc(Cl)c1Cl [H1076, (S)-4-(3-(1-(2,3-dichlorophenyl)ethyl)ureido)-N-(4-(2-hydroxy-2-methylpropyl)phenyl) benzenesulfonamide] | 91.4 µL/min/mg | 57.7 | 515 | 73.9 µL/min/mg |  |  |  | 
C[C@H](NC(=O)Nc1ccc(S(=O)(=O)Nc2ccc(CCO)cc2)cc1)c1cccc(Cl)c1Cl [H1094, (S)-4-(3-(1-(2,3-dichlorophenyl)ethyl)ureido)-N-(4-(2-hydroxyethyl)phenyl) benzenesulfonamide] | 55.1 µL/min/mg | 118 | 488 | 100.8 µL/min/mg |  |  |  | 
O=C(NCc1ccccc1)Nc1ccc2c(c1)CC(c1ccc3c(c1)CNC3)S2(=O)=O (stereo not shown) [H1271, 1-benzyl-3-(2-(isoindolin-5-yl)-1,1-dioxido-2,3-dihydrobenzo[b]thiophen-5-yl)urea] | H < 10 M < 10 R = not reported D = not reported μL/min/mg |  |  | H < 10 M < 10 R = not reported D = not reported μL/min/mg | 5 |  |  | 
CC(c1ccccc1F)N(O)C(=O)Nc1ccc(S(=O)(=O)Cc2ccc3c(c2)CNC3)cc1.Cl (stereo not shown) [H1490, 1-(1-(2-fluorophenyl)ethyl)-1-hydroxy-3-(4-((isoindolin-5-ylmethyl)sulfonyl)phenyl)urea] | H = 12.8 μL/min/mg |  |  |  |  | 3.6 | 5.43 | > 30000
CC(c1ccccc1F)N(O)C(=O)Nc1ccc(S(=O)(=O)Cc2ccc3c(c2)CN(C)C3)cc1 (stereo not shown) [H1491, 1-(1-(2-fluorophenyl)ethyl)-1-hydroxy-3-(4-(((2-methylisoindolin-5-yl)methyl)sulfonyl)phenyl)urea] | H = 79.5 μL/min/mg |  |  |  |  | 4.6 | 29.7 | > 30000
CC(NC(=O)Nc1ccc(S(=O)(=O)Cc2ccc3c(c2)CNC3)c(F)c1)c1ccccc1.Cl (stereo not shown) [H1492, 1-(3-fluoro-4-((isoindolin-5-ylmethyl)sulfonyl)phenyl)-3-(1-phenylethyl)urea] | H = 24.4 μL/min/mg |  |  |  |  | 5.1 | 36.3 | > 30000
Cc1cc(NC(=O)NC(C)c2ccccc2)ccc1S(=O)(=O)Cc1ccc2c(c1)CNC2 (stereo not shown) [H1493, 1-(4-((isoindolin-5-ylmethyl)sulfonyl)-3-methylphenyl)-3-(1-phenylethyl)urea] | H = 21.5 μL/min/mg |  |  |  |  | 4.2 | 15.3 | > 30000
CC(NC(=O)Nc1ccc(S(=O)(=O)Cc2ccc3c(c2)CNC3)c(Cl)c1)c1ccccc1 (stereo not shown) [H1494, 1-(3-chloro-4-((isoindolin-5-ylmethyl)sulfonyl)phenyl)-3-(1-phenylethyl)urea] | H = 19.1 μL/min/mg |  |  |  |  | 4 | 10.6 | > 30000
COc1cc(S(=O)(=O)Cc2ccc3c(c2)CNC3)ccc1NC(=O)N(O)C(C)c1cccc(Cl)c1Cl (stereo not shown) [H1495, 1-(1-(2,3-dichlorophenyl)ethyl)-1-hydroxy-3-(4-((isoindolin-5-ylmethyl)sulfonyl)-2-methoxyphenyl)urea] | H = 21.1 μL/min/mg |  |  |  |  | 1.2 | 2.16 | > 30000
COc1cc(S(=O)(=O)Cc2ccc3c(c2)CN(C)C3)ccc1NC(=O)N(O)C(C)c1cccc(Cl)c1Cl (stereo not shown) [H1496, 1-(1-(2,3-dichlorophenyl)ethyl)-1-hydroxy-3-(2-methoxy-4-(((2-methylisoindolin-5-yl)methyl)sulfonyl)phenyl)urea] | H = 178.3 μL/min/mg |  |  |  |  | 2.5 | 5.91 | > 30000
CNC(=O)c1cc(S(=O)(=O)Cc2ccc3c(c2)CNC3)ccc1NC(=O)NC(C)c1ccccc1 (stereo not shown) [H1499, 5-((isoindolin-5-ylmethyl)sulfonyl)-N-methyl-2-(3-(1-phenylethyl)ureido)benzamide] | H = 27.1 μL/min/mg |  |  |  |  | 7.1 | 38 | > 30000
CC(NC(=O)Nc1ccc(S(=O)(=O)Cc2ccc3c(c2)CNC3)cc1-c1ncco1)c1ccccc1 (stereo not shown) [H1500, 1-(4-((isoindolin-5-ylmethyl)sulfonyl)-2-(oxazol-2-yl)phenyl)-3-(1-phenylethyl)urea] | H = 61.4 μL/min/mg |  |  |  |  | 6.2 | 16.4 | > 30000
CC(NC(=O)Nc1ccc(S(=O)(=O)Cc2ccc3c(c2)CN(C)C3)cc1-c1ncco1)c1ccccc1 (stereo not shown) [H1501, 1-(4-(((2-methylisoindolin-5-yl)methyl)sulfonyl)-2-(oxazol-2-yl)phenyl)-3-(1-phenylethyl)urea] | H = 319.6 μL/min/mg |  |  |  |  | 18.1 | 119 | > 30000
CC(NC(=O)Nc1ccc(S(=O)(=O)Cc2ccc3c(c2)CNC3)c(Br)c1)c1ccccc1 (stereo not shown) [H1504, 1-(3-bromo-4-((isoindolin-5-ylmethyl)sulfonyl)phenyl)-3-(1-phenylethyl)urea] | H = 19.3 μL/min/mg |  |  |  |  | 5.55 | 6.47 | > 30000
